Reference: ChEMBL document CHEMBL5620414, “Discovery of YK-029A, a novel mutant EGFR inhibitor targeting both T790 M and exon 20 insertion mutations, as a treatment for NSCLC” (Eur J Med Chem, 2023)
pIC50: −log10 of the molar value.

What was measured:
[1] = target: Epidermal growth factor receptor (Homo sapiens, UniProt P00533); assay: Inhibition of wildtype EGFR (unknown origin) incubated for 60 mins in presence of ATP by biochemical enzymatic assay
[2] = target: Epidermal growth factor receptor (Homo sapiens, UniProt P00533, L858R/T790M); assay: Inhibition of GST-tagged recombinant human EGFR T790M/L858R mutant (668 to 1210 residues) expressed in Insect cells incubated for 60 mins in presence of ATP by biochemical enzymatic assay; parameters: species or system Insect cell
A-431 = assay: Antiproliferative activity against human A-431 cells harboring wildtype EGFR assessed as cell growth inhibition incubated for 72 hrs by CellTiter Glo assay; assay type: functional
BaF3 = assay: Antiproliferative activity against mouse BaF3 cells harboring EGFR D770_N771ins_SVD mutant assessed as cell growth inhibition incubated for 72 hrs by CellTiter Glo assay; assay type: functional; settings: Mus musculus, BaF3
PC-9 = assay: Antiproliferative activity against human PC-9 cells harboring EGFR del19 mutant assessed as cell growth inhibition incubated for 72 hrs by CellTiter Glo assay; assay type: functional; settings: Homo sapiens, PC-9
HCC827 = assay: Antiproliferative activity against human HCC827 cells harboring EGFR del19 mutant assessed as cell growth inhibition incubated for 72 hrs by CellTiter Glo assay; assay type: functional; settings: Homo sapiens, HCC827
NCI-H1975 = assay: Antiproliferative activity against human NCI-H1975 cells harboring EGFR L858R/T790M mutant assessed as cell growth inhibition incubated for 72 hrs by CellTiter Glo assay; assay type: functional; settings: Homo sapiens, NCI-H1975

Chain of Epidermal growth factor receptor (Homo sapiens, UniProt P00533) (P00533 whole entry, the tested form may be a part): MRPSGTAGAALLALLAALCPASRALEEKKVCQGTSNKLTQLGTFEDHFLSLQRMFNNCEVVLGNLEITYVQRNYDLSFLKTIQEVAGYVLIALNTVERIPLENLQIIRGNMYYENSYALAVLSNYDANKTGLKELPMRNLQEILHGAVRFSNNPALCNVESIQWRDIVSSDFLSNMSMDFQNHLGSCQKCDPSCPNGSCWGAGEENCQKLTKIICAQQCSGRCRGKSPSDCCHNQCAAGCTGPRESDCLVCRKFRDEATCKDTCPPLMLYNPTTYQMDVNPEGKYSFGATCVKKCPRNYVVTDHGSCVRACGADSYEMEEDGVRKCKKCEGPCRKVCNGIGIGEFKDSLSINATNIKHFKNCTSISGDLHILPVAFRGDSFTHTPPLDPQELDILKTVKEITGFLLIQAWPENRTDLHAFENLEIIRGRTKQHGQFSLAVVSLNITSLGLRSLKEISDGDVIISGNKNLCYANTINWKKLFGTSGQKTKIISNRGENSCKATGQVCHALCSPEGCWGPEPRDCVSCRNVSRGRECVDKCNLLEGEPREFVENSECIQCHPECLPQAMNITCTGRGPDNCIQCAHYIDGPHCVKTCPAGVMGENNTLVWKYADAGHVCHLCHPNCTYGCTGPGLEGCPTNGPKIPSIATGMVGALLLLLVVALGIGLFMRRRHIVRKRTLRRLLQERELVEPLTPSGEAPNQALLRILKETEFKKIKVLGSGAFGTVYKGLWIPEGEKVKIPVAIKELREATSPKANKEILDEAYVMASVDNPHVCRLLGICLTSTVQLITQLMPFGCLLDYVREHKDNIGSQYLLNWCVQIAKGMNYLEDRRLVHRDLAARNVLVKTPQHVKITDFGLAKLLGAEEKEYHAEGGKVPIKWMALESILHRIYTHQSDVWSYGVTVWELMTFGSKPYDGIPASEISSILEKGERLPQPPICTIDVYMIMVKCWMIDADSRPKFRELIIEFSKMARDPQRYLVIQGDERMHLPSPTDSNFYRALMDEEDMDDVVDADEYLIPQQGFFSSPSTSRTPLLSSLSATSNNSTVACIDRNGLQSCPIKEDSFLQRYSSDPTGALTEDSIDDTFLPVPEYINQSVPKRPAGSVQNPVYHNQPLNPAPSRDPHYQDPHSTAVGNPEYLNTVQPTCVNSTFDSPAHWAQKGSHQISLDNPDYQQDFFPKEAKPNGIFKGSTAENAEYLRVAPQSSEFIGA

| pIC50 [1] | pIC50 [2] | GI50 (A-431) | GI50 (BaF3) | GI50 (PC-9) | GI50 (HCC827) | GI50 (NCI-H1975) | SMILES |
| --- | --- | --- | --- | --- | --- | --- | --- |
| 7.67 | 8.73 | – | – | – | – | – | C=CC(=O)Nc1cc(Nc2nccc(-c3nc(C)c4ccccn34)n2)c(OC)cc1N(C)CCN(C)C |
| 7.79 | 8.78 | – | – | – | – | – | C=CC(=O)Nc1cc(Nc2nccc(-c3cnc4c(OC)cccn34)n2)c(OC)cc1N(C)CCN(C)C |
| – | – | 495 nM | – | 7.3 nM | 5.6 nM | 103 nM | C=CC(=O)Nc1cc(Nc2nccc(-c3cnc4c(Cl)cccn34)n2)c(OC)cc1N(C)CCN(C)C |
| – | – | 620 nM | – | 4.6 nM | 6.2 nM | 29 nM | C=CC(=O)Nc1cc(Nc2nccc(-c3ncc4c(C)cccn34)n2)c(OC)cc1N(C)CCN(C)C |

Continued, compound first:

| SMILES | pIC50 [1] | pIC50 [2] | GI50 (A-431) | GI50 (BaF3) | GI50 (PC-9) | GI50 (HCC827) | GI50 (NCI-H1975) |
| --- | --- | --- | --- | --- | --- | --- | --- |
| C=CC(=O)Nc1cc(Nc2nccc(-c3cnn4c(C)cccc34)n2)c(OC)cc1N(C)CCN(C)C | 7.78 | 8.85 | – | – | – | – | – |
| C=CC(=O)Nc1cc(Nc2nccc(-c3cnc4c(C)cccn34)n2)c(OC)cc1N(C)CCN1CCOCC1 | 6.67 | 8.80 | – | – | – | – | – |
| CC#CC(=O)Nc1cc(Nc2nccc(-c3ncc4c(C)cccn34)n2)c(OC)cc1N(C)CCN(C)C | 7.31 | 8.86 | – | – | – | – | – |
| C=CC(=O)Nc1cc(Nc2ncc(C(=O)OC(C)C)c(-c3cn(C)c4ccccc34)n2)c(OC)cc1N(C)CCN(C)C [MOBOCERTINIB] | – | – | 26 nM | 9 nM | – | – | – |
